The values below come from patent publication US9403756B2, “N-phenyl anthranilic acid derivatives and uses thereof” (Ramot at Tel-Aviv University Ltd., priority 2007, dated 2016).

The target in one series is T1, Kv1.2 (Homo sapiens, UniProt P16389).
T1 construct: expressed in transfected cells; host or cells: CHO cells
Put plainly: Kv channel selectivity, transfected CHO cells: Kv1.2. As to conditions: for Fold current amplitude: 0 mV, transfected CHO cells. The series is classed as cell-based. How it is done:
(§1) Voltage-clamp recordings in CHO cells were performed, using the whole-cell configuration of the patch-clamp technique. Signals were amplified using an Axopatch 200B patch-clamp amplifier (Molecular Devices, Sunnyvale, Calif.), sampled at 2 kHz and filtered at 800 Hz via a 4-pole Bessel low pass filter. Data were acquired using pClamp 9.2 software (Molecular Devices) and an IBM compatible Pentium IV computer in conjunction with a DigiData 1322A interface (Molecular Devices). The patch pipettes were pulled from borosilicate glass (Warner Instrument Corp, USA) with a resistance of 2-5 MΩ. For K^+ current recordings in CHO cells, the intracellular pipette solution contained (in mM): 130 KCl, 1 MgCl2, 5 K2ATP, 5 EGTA, 10 HEPES, adjusted with KOH to pH 7.4 (290 mOsm). The extracellular solution contained (in mM): 140 NaCl, 4 KCl, 1.8 CaCl2, 1.2 MgCl2, 11 glucose, 5.5 HEPES, adjusted with NaOH to pH 7.4 (310 mOsm). Series resistances (3-13 MΩ) were compensated (75-90%) and periodically monitored.
(§2) The selectivity of NH29 on other relevant Kv channels expressed in Xenopus oocytes was also studied, and the results are summarized in Table 3 below. The specificity of NH29 at 25 μM and 50 μM towards various Kv channels was tested in Xenopus oocytes, except for Kv1.2 which was checked in transfected CHO cells. The current amplitude of the various Kv channels was tested at the indicated voltages and the effect of the drugs was expressed as fold of the control amplitude measured under the same conditions in the absence of the drug. The data in Table 3 are expressed as mean±SEM of 5-7 separate experiments.

The next series addresses T2, Kv 2.1 (Homo sapiens, UniProt Q14721).
T2 construct: expressed in transfected cells; host or cells: Xenopus oocytes
Description: Kv channel selectivity, Xenopus oocytes: Kv2.1. The series is classed as cell-based. As to conditions: 25 μM, +30 mV. How it is done:
(§3) Voltage-clamp measurements in Xenopus oocytes were performed as previously described.
as §2

A further series addresses T3, IKS (Homo sapiens, UniProt P51787).
T3 construct: expressed in transfected cells; host or cells: Xenopus oocytes
Description: Kv channel selectivity, Xenopus oocytes: IKS. The series is classed as cell-based. As to conditions: +30 mV. How it is done: as §3, §2

In the next series the target is T4, Kv11.1 or Herg (Homo sapiens, UniProt Q12809).
T4 construct: expressed in transfected cells; host or cells: Xenopus oocytes
T4 sequence (Q12809 whole entry): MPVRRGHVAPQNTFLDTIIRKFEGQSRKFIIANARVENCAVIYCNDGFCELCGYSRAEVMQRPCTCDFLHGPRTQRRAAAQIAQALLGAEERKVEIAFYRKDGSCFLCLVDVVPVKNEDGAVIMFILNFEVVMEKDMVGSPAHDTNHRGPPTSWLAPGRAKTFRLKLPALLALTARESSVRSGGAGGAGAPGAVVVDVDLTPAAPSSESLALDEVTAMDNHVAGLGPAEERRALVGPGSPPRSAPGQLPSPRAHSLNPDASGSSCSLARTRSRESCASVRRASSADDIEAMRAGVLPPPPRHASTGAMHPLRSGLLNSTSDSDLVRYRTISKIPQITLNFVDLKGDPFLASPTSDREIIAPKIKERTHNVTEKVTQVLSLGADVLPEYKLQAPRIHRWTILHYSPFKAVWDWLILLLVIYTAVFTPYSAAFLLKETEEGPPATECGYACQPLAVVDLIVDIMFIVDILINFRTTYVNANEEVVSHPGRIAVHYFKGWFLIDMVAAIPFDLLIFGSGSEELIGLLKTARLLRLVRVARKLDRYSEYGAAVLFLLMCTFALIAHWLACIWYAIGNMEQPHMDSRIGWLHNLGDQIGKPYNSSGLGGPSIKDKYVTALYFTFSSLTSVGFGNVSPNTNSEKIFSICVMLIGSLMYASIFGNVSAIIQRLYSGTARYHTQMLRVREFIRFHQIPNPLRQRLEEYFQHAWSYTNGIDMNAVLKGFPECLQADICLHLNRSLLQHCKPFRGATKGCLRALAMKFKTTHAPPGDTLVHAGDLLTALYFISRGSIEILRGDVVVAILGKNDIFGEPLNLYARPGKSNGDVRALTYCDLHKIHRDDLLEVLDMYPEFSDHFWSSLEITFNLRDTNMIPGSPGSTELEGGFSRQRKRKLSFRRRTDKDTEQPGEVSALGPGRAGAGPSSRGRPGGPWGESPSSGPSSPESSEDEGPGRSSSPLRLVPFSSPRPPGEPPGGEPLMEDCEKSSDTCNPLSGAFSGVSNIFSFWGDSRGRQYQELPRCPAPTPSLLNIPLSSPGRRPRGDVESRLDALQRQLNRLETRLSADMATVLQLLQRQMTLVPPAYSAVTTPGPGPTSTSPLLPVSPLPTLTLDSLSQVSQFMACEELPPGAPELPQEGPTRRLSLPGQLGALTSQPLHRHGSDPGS
Description: Kv channel selectivity, Xenopus oocytes: Kv11.1. The class given is cell-based. Conditions: 25 μM, −10 mV. How it is done:
as §3, §2

The target of a further series is T5, Kv7.2 (Homo sapiens, UniProt O43526).
T5 construct: expressed in transfected cells; host or cells: Xenopus oocytes
T5 sequence (O43526 whole entry): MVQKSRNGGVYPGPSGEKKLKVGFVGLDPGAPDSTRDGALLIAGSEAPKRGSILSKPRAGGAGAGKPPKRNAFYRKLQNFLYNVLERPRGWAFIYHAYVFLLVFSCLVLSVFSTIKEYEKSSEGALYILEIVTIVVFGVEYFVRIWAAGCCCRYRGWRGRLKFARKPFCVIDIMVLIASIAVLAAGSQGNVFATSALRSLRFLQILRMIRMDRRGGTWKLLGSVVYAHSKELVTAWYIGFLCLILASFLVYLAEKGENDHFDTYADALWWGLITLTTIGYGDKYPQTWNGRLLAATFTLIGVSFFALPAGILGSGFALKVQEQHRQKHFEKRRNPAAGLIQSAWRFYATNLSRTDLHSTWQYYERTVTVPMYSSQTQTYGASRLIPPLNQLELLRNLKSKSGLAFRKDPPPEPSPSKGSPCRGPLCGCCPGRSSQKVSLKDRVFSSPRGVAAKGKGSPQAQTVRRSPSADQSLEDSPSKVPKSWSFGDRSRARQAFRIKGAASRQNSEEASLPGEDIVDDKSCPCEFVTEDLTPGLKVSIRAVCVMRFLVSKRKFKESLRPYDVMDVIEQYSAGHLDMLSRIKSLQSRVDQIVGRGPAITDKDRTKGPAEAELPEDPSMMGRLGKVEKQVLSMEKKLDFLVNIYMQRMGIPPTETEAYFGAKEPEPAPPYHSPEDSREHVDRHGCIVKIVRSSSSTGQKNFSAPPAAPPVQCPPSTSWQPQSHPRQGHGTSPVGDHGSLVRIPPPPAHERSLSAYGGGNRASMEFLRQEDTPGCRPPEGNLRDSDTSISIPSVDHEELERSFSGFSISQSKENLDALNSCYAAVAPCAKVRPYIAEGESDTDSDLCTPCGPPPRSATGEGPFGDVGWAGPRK
Put plainly: Kv channel selectivity, Xenopus oocytes: Kv7.2. The series is classed as cell-based. Conditions: −40 mV. Here is the method: as §3, §2

Another series addresses T6, wild type KCNQ2 (Homo sapiens, UniProt O43526).
T6 construct: expressed in transfected cells; host or cells: CHO cells (printed for the mutants and in the general method)
Put plainly: Wild type KCNQ2 (Kv7.2) currents, patch-clamp. The class given is cell-based. As to conditions: NH29.
Excerpt: FIGS. 10A-D present the potentiating effect of NH29, an exemplary channel opener compound according to embodiments of the present invention, on wild type KCNQ2 (FIGS. 10A and 10B) and R207W mutant (FIGS. 10C and 10D) channels, as expressed in activation curve measurements, showing that NH29 left-shifts the activation curve (ΔV50) by −15.5 mV and −5.5 mV in the case of the wild-type and the mutant, respectively, and showing that NH29 enhances the current of wild-type and the mutant by about 3.4-fold (at −40 mV) and 1.5-fold (at −20 mV), respectively.
as §1, with “For K^+ current recordings in CHO cells, the intracellular pipette solution contained (in mM): 130 KCl, 1 MgCl2, 5 K2ATP, 5 EGTA, 10 HEPES, adjusted with KOH to pH 7.4 (290 mOsm). The extracellular solution contained (in mM): 140 NaCl, 4 KCl, 1.8 CaCl2, 1.2 MgCl2, 11 glucose, 5.5 HEPES, adjusted with NaOH to pH 7.4 (310 mOsm).” left out
In general terms: Patch clamp records ionic current or voltage across a cell membrane.

The next series concerns the target T7, Kv 7.1 (Homo sapiens, UniProt P51787).
T7 construct: expressed in transfected cells; host or cells: Xenopus oocytes
Description: Kv channel selectivity, Xenopus oocytes: Kv7.1. The class given is cell-based. Conditions: for Fold current amplitude: +30 mV, Xenopus oocytes. Here is the method:
as §3, §2

The test system of a further series is hippocampal neurons. Put plainly: Current-clamp recordings in cultured hippocampal neurons. The class given is cell-based, rat. Here is the method:
For hippocampal neuronal cultures, Sprague-Dawley rat embryos (E18) were removed by caesarian section and their hippocampi were dissected out. The tissue was digested with papain for 20 min, triturated to a single-cell suspension, and plated at a density of 40,000 cells per ml on a substrate of bovine collagen type IV and 100 μg/ml poly-L-lysine in 13 mm diameter glass coverslips of a 24-multiwell plate. The culture medium consisted of Modified Eagle's Medium containing 5% horse serum (Biological Industries, Beit HaEmek, Israel), B-27 neuronal supplement (Invitrogen, Carlsbad, Calif.), 100 U/ml penicillin, 100 μg/ml streptomycin, and 2 mM glutamine. D-glucose was supplemented to a final concentration of 6 g/l. Cytosine-1-D-arabinofuranoside (5 μM) was added after 5 days to arrest glial cell proliferation.
For electrophysiological recordings hippocampal neurons were used at 10-14 days in culture. All cultures were maintained at 37° C. in humidified air containing 5% CO2.
For current-clamp recordings in primary cultured neurons, the patch pipettes were filled with (in mM): 135 KCl, 1 K2ATP, 1 MgATP, 2 EGTA, 1.1 CaCl2, 5 glucose, 10 HEPES, adjusted with KOH at pH 7.4 (315 mOsm). […] A liquid junction potential of about −15.6 mV was measured between the intracellular and saline solutions and corrected on-line. […]

T7 sequence (P51787 whole entry): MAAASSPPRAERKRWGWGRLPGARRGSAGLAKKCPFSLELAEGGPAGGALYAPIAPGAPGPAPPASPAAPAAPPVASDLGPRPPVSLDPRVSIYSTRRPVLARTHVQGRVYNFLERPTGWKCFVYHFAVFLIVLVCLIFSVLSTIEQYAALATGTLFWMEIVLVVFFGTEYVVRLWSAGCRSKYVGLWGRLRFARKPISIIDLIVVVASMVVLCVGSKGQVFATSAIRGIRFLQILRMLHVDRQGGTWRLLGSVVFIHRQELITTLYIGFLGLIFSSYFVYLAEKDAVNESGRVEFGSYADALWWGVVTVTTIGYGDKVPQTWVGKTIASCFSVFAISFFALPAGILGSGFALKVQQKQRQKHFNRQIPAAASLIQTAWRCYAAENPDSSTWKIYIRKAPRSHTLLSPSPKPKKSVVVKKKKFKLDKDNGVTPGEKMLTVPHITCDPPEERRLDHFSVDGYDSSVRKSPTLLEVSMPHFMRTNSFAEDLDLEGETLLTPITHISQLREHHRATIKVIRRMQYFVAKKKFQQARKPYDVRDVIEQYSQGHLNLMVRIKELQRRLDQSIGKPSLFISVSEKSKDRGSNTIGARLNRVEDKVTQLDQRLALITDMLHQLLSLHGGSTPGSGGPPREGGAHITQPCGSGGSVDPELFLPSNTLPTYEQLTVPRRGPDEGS
T1 sequence (P16389 whole entry): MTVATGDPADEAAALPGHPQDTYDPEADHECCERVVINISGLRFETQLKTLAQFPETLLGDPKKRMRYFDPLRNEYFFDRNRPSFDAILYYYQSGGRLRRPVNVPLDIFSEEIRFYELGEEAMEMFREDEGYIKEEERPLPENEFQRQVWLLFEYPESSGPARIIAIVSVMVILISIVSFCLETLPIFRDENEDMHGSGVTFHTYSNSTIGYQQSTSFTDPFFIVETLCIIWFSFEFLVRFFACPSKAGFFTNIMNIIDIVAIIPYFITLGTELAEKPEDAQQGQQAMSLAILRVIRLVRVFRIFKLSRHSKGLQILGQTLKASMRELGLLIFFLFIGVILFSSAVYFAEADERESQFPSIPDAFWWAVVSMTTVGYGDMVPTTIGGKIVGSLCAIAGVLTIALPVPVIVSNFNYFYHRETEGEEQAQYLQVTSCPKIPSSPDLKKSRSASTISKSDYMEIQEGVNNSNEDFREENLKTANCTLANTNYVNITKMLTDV
T3 sequence (P51787 whole entry): as the sequence (P51787 whole entry) above
T6 sequence (O43526 whole entry): as the sequence (O43526 whole entry) above
T2 sequence (Q14721 whole entry): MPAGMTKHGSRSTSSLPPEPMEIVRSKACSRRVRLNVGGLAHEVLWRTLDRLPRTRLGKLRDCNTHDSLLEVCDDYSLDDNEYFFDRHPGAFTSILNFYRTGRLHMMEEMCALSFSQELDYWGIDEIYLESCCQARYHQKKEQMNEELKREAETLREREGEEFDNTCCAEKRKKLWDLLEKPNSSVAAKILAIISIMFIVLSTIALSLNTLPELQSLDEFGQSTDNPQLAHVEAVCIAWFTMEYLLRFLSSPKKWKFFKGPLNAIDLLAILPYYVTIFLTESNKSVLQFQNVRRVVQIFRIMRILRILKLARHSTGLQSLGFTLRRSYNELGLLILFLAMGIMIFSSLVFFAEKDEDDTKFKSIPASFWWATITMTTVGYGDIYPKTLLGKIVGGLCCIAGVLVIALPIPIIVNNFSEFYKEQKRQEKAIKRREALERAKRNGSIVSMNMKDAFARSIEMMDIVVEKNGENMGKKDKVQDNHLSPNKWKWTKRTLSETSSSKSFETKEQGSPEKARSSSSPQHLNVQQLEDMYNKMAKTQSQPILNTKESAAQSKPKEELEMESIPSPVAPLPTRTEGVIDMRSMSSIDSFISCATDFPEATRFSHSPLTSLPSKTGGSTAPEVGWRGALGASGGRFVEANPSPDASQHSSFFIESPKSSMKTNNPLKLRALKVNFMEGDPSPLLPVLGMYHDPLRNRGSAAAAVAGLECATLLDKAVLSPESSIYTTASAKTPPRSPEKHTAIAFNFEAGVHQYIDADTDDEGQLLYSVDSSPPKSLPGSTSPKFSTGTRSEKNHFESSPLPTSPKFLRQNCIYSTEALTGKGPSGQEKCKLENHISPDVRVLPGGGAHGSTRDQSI

Turning to `O=C(Cc1cc([N+](=O)[O-])cc([N+](=O)[O-])c1Nc1c(Cl)cc([N+](=O)[O-])cc1Cl)NCCO` [NH29], the Fold current amplitude is 0.9 ± 0.01 fold on Kv1.2 (25 μM); 0.66 ± 0.03 fold at Kv1.2 (50 μM); 1.2 ± 0.09 fold at Kv 2.1; 1.02 ± 0.04 fold at IKS (25 μM); 0.97 ± 0.04 fold at IKS (50 μM); 1.1 ± 0.02 fold at Kv11.1 or Herg. The Fold current amplitude at Kv7.2 (25 μM) came out at 3.5 ± 0.4 fold; at Kv7.2 (50 μM), 6.8 ± 0.7 fold; on Kv 7.1 (25 μM) it was 0.93 ± 0.02 fold; at Kv 7.1 (50 μM), 0.72 ± 0.02 fold. For the same molecule, the inhibition – broadly, how much of the control response was suppressed – at 50 µM was determined as 34% at Kv1.2 (CHO, 50 μM, read-out: inhibition of Kv1.2 current) and 23% on Kv 7.1 (50 μM, read-out: inhibition of Kv7.1 current). For the same molecule, the “left-shift of the activation curve (ΔV50)” value at wild type KCNQ2 is on record as −15.5 mV.
As to `O=C(Cc1cc([N+](=O)[O-])ccc1Nc1c(Cl)cccc1Cl)OCCO` [NH25], the “number of evoked action potentials” value in the series with hippocampal neurons (25 μM NH25, 75-200 pA for 400 ms, control 9.6±1.0, n=8) came out at 2.1±0.5. Also, the “hyperpolarization of resting membrane potential” value with hippocampal neurons (NH25) is −8.5 mV.
